Data taken from ChEMBL document CHEMBL3868610, “Novel bicyclo[3.1.0]hexane analogs as antagonists of metabotropic glutamate 2/3 receptors for the treatment of depression” (Bioorg Med Chem Lett, 2016).
Calls of active or inactive are those of the source. The rule behind the calls is not given here.

Assays:
[1] = molecular target: T1, Metabotropic glutamate receptor 1 (Homo sapiens, UniProt Q13255); test: Antagonist activity at recombinant human mGlu1 receptor expressed in hamster AV12 cells coexpressing human EAAT1/Galpha1s assessed as inhibition of Ca2+ flux by Fluo-3-AM dye based FLIPR assay; format: functional, cell-based
[2] = molecular target: T2, Metabotropic glutamate receptor 4 (Homo sapiens, UniProt Q14833); test: Antagonist activity at recombinant human mGlu4 receptor expressed in hamster AV12 cells co-expressing human EAAT1/Galpha1s assessed as inhibition of Ca2+ flux by Fluo-3-AM dye based FLIPR assay; format: functional, cell-based
[3] = Tmax in rat at 10 mg/kg, ip; format: ADME, organism-based; conditions: in vivo
[4] = molecular target: Metabotropic glutamate receptor 2 (Homo sapiens, UniProt Q14416); test: Antagonist activity at recombinant human mGlu2 receptor expressed in hamster AV12 cells co-expressing human EAAT1 assessed as reduction of DCG-4-inhibited forskolin-stimulated cAMP formation after 20 mins by HTRF assay; format: functional, cell-based
[5] = Half life in rat at 5 mg/kg, po; format: ADME, organism-based; conditions: in vivo
[6] = Unbound fraction in monkey plasma at 1 uM; format: ADME, cell-free, Macaca mulatta; conditions: rhesus monkey
[7] = Plasma concentration in NIH Swiss Webster mouse at 1 mg/kg, ip at 30 mins; format: ADME, organism-based
[8] = molecular target: Metabotropic glutamate receptor 6 (Homo sapiens, UniProt O15303); test: Agonist activity at recombinant human mGlu6 receptor expressed in hamster AV12 cells co-expressing EAAT1 assessed as induction of forskolin-stimulated cAMP formation after 20 mins by HTRF assay; format: functional, cell-based
[9] = Permeability from apical side to basolateral side in MDCK cells at 20 uM; format: ADME, cell-based, Canis lupus familiaris; conditions: dog
[10] = Unbound fraction in mouse; format: ADME, organism-based; conditions: in vivo
[11] = Cmax in rat at 10 mg/kg, ip; format: ADME, organism-based; parameters: dose 10 mg/kg, route intraperitoneal; conditions: in vivo
[12] = test system: Rattus norvegicus; test: Toxicity in rat assessed as increase in locomotive activity at 3 to 10 mg/kg, ip; format: organism-based; conditions: in vivo
[13] = Plasma concentration in NIH Swiss Webster mouse at 0.3 mg/kg, ip at 30 mins; format: ADME, organism-based
[14] = Drug metabolism in monkey microsomes at 4 uM after 30 mins; format: ADME, Macaca mulatta, Microsome; conditions: rhesus monkey, read-out: Drug metabolism
[15] = Ratio of drug level in brain to plasma in mouse at 10 mg/kg, ip after 30 mins; format: ADME, organism-based; conditions: read-out: BPR
[16] = molecular target: CYP2C9 (Homo sapiens, UniProt P11712); test: Inhibition of human CYP2C9 at 10 uM; format: ADME
[17] = molecular target: Metabotropic glutamate receptor 5 (Homo sapiens, UniProt P41594); test: Antagonist activity at recombinant human mGlu5 receptor expressed in hamster AV12 cells coexpressing human EAAT1/Galpha1s assessed as inhibition of Ca2+ flux by Fluo-3-AM dye based FLIPR assay; format: functional, cell-based
[18] = Drug uptake in NIH Swiss Webster mouse brain at 1 mg/kg, ip at 30 mins; format: ADME, organism-based; conditions: read-out: Drug uptake
[19] = AUC (0 to 24 hrs) in rat at 10 mg/kg, ip; format: ADME, organism-based; parameters: dose 10 mg/kg, time < 24 hr, route intraperitoneal; conditions: in vivo
[20] = molecular target: ABCB1 (P-gp) (Homo sapiens, UniProt P08183); test: Inhibition of human ABCB1 expressed in MDCK cells at 5 to 25 uM relative to control; format: ADME, cell-based; conditions: MDCK-MDR1
[21] = Half life in rat at 10 mg/kg, ip; format: ADME, organism-based; conditions: in vivo
[22] = Antidepressant activity in ip dosed NIH Swiss Webster mouse assessed as reduction in immobility time administered 30 mins prior to evaluation measured on the last 4 mins of the 6 mins observation time by forced swim test; format: functional, organism-based
[23] = Antidepressant activity in NIH Swiss Webster mouse assessed as immobility time at 0.3 mg/kg, ip administered 30 mins prior to test measured during last 4 mins of the 6 mins observation time by forced swim test (reference value: 142 sec); format: functional, organism-based
[24] = Plasma concentration in NIH Swiss Webster mouse at 3 mg/kg, ip at 30 mins; format: ADME, organism-based
[25] = molecular target: Metabotropic glutamate receptor 3 (Homo sapiens, UniProt Q14832); test: Antagonist activity at recombinant human mGlu3 receptor expressed in hamster AV12 cells co-expressing human EAAT1 assessed as reduction of DCG-4-inhibited forskolin-stimulated cAMP formation after 20 mins by HTRF assay; format: functional, cell-based
[26] = Antidepressant activity in NIH Swiss Webster mouse assessed as immobility time at 1 mg/kg, ip administered 30 mins prior to test measured during last 4 mins of the 6 mins observation time by forced swim test (reference value: 142 sec); format: functional, organism-based
[27] = Antidepressant activity in rat assessed as increase in wakefulness at 3 to 10 mg/kg, ip
[28] = Drug metabolism in human microsomes at 4 uM after 30 mins; format: ADME, Microsome; conditions: read-out: Drug metabolism
[29] = molecular target: T1, Metabotropic glutamate receptor 1; test: Agonist activity at recombinant human mGlu1 receptor expressed in hamster AV12 cells co-expressing human EAAT1/Galpha1s assessed as increase in Ca2+ flux by Fluo-3-AM dye based FLIPR assay; format: functional, cell-based
[30] = Unbound fraction in human plasma at 1 uM; format: ADME, cell-free
[31] = molecular target: Metabotropic glutamate receptor 7 (Homo sapiens, UniProt Q14831); test: Antagonist activity at recombinant human mGlu7 receptor expressed in hamster AV12 cells co-expressing human EAAT1/Galpha1s assessed as inhibition of Ca2+ flux by Fluo-3-AM dye based FLIPR assay; format: functional, cell-based
[32] = Antidepressant activity in ip dosed rat EEG model assessed as accumulated wake time measured over 7 hrs relative to control; format: functional, organism-based
[33] = AUC (0 to 24 hrs) in rat at 5 mg/kg, po; format: ADME, organism-based; parameters: time < 24 hr, dose 5 mg/kg, route oral; conditions: in vivo
[34] = molecular target: CYP3A4 (Homo sapiens, UniProt P08684); test: Inhibition of human CYP3A4 at 10 uM; format: ADME
[35] = Antidepressant activity in NIH Swiss Webster mouse assessed as immobility time at 3 mg/kg, ip administered 30 mins prior to test measured during last 4 mins of the 6 mins observation time by forced swim test (reference value: 142 sec); format: functional, organism-based
[36] = Half life in rat at 1 mg/kg, iv; format: ADME, organism-based; conditions: in vivo
[37] = Cmax in rat at 5 mg/kg, po; format: ADME, organism-based; parameters: dose 5 mg/kg, route oral; conditions: in vivo
[38] = Cmax in rat at 1 mg/kg, iv; format: ADME, organism-based; parameters: dose 1 mg/kg, route intravenous; conditions: in vivo
[39] = Drug metabolism in rat microsomes at 4 uM after 30 mins; format: ADME, Microsome; conditions: read-out: Drug metabolism
[40] = molecular target: T2, Metabotropic glutamate receptor 4; test: Agonist activity at recombinant human mGlu4 receptor expressed in hamster AV12 cells co-expressing human EAAT1/Galpha1s assessed as increase in Ca2+ flux by Fluo-3-AM dye based FLIPR assay; format: functional, cell-based
[41] = molecular target: Voltage-gated inwardly rectifying potassium channel KCNH2 (Homo sapiens, UniProt Q12809); test: Displacement of [3H]-Astemizole from human ERG by membrane binding assay
[42] = Drug metabolism in dog microsomes at 4 uM after 30 mins; format: ADME, Canis lupus familiaris, Microsome; conditions: read-out: Drug metabolism
[43] = AUC (0 to 24 hrs) in rat at 1 mg/kg, iv; format: ADME, organism-based; parameters: dose 1 mg/kg, time < 24 hr, route intravenous; conditions: in vivo
[44] = Antidepressant activity in rat EEG model assessed as accumulated wake time at 3 mg/kg, ip measured over 7 hrs relative to control; format: functional, organism-based

T1 sequence (Q13255 whole entry): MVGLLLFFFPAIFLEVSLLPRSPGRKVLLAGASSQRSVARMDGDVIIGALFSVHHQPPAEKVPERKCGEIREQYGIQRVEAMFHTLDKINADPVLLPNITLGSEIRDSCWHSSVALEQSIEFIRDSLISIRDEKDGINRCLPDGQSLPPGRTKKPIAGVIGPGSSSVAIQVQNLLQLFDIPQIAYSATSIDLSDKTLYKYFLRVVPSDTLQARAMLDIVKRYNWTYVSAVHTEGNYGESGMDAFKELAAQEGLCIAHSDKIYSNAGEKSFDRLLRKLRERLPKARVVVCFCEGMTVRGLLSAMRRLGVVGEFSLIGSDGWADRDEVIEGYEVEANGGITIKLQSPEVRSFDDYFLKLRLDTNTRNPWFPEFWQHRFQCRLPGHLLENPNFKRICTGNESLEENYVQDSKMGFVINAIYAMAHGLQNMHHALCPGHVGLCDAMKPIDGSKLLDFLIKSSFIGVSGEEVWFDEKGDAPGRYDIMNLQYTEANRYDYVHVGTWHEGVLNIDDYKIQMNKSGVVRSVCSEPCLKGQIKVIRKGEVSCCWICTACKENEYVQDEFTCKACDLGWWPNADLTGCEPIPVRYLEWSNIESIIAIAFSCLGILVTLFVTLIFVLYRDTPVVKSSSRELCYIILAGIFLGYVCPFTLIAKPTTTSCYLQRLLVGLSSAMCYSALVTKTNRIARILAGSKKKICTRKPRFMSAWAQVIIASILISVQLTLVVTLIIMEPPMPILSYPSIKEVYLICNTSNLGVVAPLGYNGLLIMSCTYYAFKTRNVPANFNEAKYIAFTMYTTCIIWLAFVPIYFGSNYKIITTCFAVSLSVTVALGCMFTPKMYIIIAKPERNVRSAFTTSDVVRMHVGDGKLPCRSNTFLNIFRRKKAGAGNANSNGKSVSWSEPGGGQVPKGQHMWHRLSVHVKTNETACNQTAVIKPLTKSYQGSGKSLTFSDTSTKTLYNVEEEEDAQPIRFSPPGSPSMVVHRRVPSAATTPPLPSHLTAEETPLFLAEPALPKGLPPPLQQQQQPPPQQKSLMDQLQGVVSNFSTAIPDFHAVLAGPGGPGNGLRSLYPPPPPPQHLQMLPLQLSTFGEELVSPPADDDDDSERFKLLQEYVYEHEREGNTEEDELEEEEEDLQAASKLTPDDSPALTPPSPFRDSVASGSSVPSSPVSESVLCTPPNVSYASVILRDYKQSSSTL
T2 sequence (Q14833 whole entry): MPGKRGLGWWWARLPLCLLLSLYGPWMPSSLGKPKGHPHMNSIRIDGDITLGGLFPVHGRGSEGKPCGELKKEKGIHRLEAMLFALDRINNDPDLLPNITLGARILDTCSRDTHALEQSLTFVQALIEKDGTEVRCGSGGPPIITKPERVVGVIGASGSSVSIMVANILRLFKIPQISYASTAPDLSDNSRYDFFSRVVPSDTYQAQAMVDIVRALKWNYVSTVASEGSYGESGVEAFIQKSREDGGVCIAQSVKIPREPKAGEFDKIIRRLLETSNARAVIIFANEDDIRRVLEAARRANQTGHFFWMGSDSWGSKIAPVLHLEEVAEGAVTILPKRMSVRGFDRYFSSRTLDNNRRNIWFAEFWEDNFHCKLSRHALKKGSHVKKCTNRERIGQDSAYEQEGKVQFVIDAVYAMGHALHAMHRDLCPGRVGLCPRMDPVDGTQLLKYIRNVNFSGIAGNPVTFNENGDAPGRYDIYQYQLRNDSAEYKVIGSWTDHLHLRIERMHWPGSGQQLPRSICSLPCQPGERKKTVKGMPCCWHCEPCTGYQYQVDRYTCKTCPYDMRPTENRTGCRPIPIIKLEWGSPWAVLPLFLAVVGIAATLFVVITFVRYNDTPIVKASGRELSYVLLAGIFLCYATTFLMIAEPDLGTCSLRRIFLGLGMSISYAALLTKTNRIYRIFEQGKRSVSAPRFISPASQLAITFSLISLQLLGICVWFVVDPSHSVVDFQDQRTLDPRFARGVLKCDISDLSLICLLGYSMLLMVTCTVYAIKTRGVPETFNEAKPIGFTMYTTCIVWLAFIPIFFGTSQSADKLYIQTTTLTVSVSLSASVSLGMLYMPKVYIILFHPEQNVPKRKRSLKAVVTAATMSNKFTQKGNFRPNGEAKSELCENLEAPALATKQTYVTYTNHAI
Metabotropic glutamate receptor 6, sequence (O15303 whole entry): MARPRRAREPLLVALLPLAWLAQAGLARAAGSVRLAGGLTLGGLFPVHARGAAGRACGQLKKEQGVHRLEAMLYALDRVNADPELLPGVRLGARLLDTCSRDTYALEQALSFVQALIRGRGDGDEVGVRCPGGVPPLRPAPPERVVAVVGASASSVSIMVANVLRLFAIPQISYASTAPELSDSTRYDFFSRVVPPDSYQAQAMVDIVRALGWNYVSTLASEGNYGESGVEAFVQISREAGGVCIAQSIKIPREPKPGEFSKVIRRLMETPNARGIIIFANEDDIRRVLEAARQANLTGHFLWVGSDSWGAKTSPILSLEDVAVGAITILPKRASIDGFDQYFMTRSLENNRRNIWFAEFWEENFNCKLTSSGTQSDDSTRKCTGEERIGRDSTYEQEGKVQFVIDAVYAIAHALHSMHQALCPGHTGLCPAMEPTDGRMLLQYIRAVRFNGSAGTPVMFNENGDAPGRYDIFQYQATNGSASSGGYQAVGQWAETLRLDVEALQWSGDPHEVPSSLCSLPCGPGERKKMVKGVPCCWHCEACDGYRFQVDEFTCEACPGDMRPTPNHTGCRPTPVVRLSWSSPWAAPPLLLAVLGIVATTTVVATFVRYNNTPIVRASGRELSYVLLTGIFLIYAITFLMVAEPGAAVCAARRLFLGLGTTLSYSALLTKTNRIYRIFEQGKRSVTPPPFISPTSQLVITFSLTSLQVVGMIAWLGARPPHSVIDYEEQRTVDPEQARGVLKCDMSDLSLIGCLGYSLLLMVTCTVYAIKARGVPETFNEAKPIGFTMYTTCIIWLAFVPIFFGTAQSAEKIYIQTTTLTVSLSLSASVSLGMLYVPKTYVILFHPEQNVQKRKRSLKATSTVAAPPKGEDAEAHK
CYP3A4, sequence (P08684 whole entry): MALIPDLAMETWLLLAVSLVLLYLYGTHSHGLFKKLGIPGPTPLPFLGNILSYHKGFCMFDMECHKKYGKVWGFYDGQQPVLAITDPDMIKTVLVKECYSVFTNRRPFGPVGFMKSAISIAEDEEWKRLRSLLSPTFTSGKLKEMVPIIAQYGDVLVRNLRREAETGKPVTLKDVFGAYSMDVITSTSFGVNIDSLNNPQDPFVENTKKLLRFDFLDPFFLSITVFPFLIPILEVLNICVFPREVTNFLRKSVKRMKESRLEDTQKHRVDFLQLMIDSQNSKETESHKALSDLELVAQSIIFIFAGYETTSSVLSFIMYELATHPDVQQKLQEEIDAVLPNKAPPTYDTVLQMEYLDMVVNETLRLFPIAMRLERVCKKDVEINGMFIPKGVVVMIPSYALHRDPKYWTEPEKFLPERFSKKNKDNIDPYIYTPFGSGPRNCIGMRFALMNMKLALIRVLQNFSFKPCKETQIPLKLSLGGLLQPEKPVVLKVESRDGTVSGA
Voltage-gated inwardly rectifying potassium channel KCNH2, sequence (Q12809 whole entry): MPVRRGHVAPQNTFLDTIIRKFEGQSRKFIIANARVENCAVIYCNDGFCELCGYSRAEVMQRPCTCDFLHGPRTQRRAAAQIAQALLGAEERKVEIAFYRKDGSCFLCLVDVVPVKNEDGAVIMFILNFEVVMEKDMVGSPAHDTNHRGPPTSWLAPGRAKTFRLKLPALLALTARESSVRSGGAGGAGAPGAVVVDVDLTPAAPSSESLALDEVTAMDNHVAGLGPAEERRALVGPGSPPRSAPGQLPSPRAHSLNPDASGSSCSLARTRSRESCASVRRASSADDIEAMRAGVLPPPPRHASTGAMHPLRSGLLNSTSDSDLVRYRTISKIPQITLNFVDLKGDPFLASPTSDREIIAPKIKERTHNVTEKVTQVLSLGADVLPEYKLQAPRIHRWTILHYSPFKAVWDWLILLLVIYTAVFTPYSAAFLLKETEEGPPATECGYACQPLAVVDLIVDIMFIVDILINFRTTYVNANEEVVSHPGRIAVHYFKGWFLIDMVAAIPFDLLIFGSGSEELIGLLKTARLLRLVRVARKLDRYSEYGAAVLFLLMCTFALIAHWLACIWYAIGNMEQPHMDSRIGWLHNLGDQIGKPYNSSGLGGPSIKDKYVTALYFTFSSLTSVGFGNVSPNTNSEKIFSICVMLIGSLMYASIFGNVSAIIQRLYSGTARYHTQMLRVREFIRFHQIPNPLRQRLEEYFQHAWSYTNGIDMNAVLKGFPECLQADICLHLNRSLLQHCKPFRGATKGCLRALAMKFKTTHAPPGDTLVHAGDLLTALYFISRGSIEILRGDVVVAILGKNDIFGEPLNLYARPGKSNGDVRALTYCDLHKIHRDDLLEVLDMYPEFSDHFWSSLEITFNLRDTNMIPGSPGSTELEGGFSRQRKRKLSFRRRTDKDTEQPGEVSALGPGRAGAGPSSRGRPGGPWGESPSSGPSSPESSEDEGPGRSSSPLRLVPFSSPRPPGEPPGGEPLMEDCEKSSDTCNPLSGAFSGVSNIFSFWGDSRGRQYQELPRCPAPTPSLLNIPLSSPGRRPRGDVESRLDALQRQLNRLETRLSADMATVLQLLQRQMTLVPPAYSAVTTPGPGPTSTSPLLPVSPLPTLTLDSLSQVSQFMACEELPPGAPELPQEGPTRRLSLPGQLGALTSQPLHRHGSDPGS

`N[C@]1(C(=O)O)[C@@H]2[C@@H](C(=O)O)[C@@H]2[C@H](O)[C@H]1OCc1ccc(Cl)c(Cl)c1` showed an IC50 [1] greater than 12.5 µM, an IC50 [2] greater than 12.5 µM and a Tmax [3] of 0.38 h. It also gave an IC50 [4] of 0.046 µM, an Imax [4] greater than 94% and a half-life [5] of 5.49 h. The fraction unbound at 1 µM [6] was greater than 0.4, the concentration at 0.5 h [7] was 4.81 µM and the EC50 [8] was greater than 12.5 µM. The permeability [9] was 2%, the fraction unbound [10] was 0.56 and the Cmax [11] was 48.1 µM. For the same molecule, the Activity [12] was “Non-Toxic”, the concentration at 0.5 h [13] was 1.29 µM and the metabolised at 0.5 h, 4 µM [14] was less than 20%. It also gave a Kp at 0.5 h [15] of 0.015, an inhibition at 10 µM [16] of less than 5% and an IC50 [17] greater than 12.5 µM. The concentration at 0.5 h [18] was 0.072 µM, the AUC(0-t) at 24 h [19] was 116 µM·h and the inhibition [20] was less than 1%. For the same molecule, the half-life [21] was 4.48 h, the ED60 [22] was 0.72 mg/kg and the MED [22] was 1 mg/kg. It also gave a TIME [23] of 0.0394 h, a concentration at 0.5 h [24] of 16.5 µM and an IC50 [25] of 0.0461 µM. For the same molecule, the Imax [25] was greater than 94%, the TIME [26] was 0.0272 h and the Activity [27] was “Active”. For the same molecule, the metabolised at 0.5 h, 4 µM [28] was less than 20%, the EC50 [29] was greater than 25 µM and the fraction unbound at 1 µM [30] was greater than 0.4. For the same molecule, the IC50 [31] was 10.5 µM, the TIME [32] was 2.18 h and the AUC [33] was 1.783 µM·h. The inhibition at 10 µM [34] was less than 5%, the TIME [35] was 0.0167 h and the half-life [36] was 4.61 h. The Cmax [37] was 0.262 µM, the Cmax [38] was 33.9 µM and the metabolised at 0.5 h, 4 µM [39] was less than 20%. The EC50 [40] was greater than 25 µM, the Ki [41] was greater than 100 µM and the metabolised at 0.5 h, 4 µM [42] was less than 20%. The AUC [43] was 32.165 µM·h and the Activity [44] was “Dose-dependent effect”.
